This note sets out measurements from ChEMBL document CHEMBL3580582, “The Cephalostatins. 23. Conversion of Hecogenin to a Steroidal 1,6-Dioxaspiro[5.5]nonane Analogue for Cephalostatin 11” (2015).

Values after ≈ are worked out from the molar mass of the structure shown.

System in one experiment: not listed separately
Put plainly: Cytotoxicity against human NCI60 cells. It is filed as functional.
Details: not given
In general, GI50 refers to the concentration giving 50% growth inhibition. On to `C[C@@H]1[C@]2(O[C@H]3C=C4[C@@H]5CC[C@H]6Cc7nc8c(nc7C[C@]6(C)[C@H]5C[C@@H](O)[C@]4(C)[C@]31O)C[C@@H]1CC[C@H]3C4=CC[C@@H]5[C@H](C)[C@@]6(OC[C@]45C(=O)C[C@@H]3[C@@]1(C)C8)OC(C)(C)C[C@H]6O)O[C@](C)(CO)C[C@H]2O` [CEPHALOSTATIN 1], for which the 50% growth inhibitory concentration (GI50) turned out to be 1.8 nM.

The next experiment has as its system P388. Put plainly: Cytotoxicity against mouse P388 cells assessed as growth inhibition after 48 hrs by coulter particle counter analysis. To be noted: P388, 48 h, read-out: ED50 (the source's name). It is filed as functional.
With `CC(=O)OC[C@]1(C)CC[C@@]2(O[C@H]3C[C@H]4[C@@H]5CC[C@H]6CC(=O)CC[C@]6(C)[C@H]5CC(=O)[C@]4(C)[C@H]3[C@@H]2C)O1`, the EC50 is above 10 µg/mL.

With `CC(=O)O[C@H]1CC[C@@]2(C)[C@@H](CC[C@@H]3[C@@H]2CC(=O)[C@@]2(C)[C@H]3C[C@@H]3OC(CCC(C)CCl)=C(C)[C@@H]32)C1` (some centres undefined), the EC50 was above 100 µg/mL.

For `CC1=C(CCC(C)CCl)O[C@H]2C[C@H]3[C@@H]4CC[C@H]5CC(=O)CC[C@]5(C)[C@H]4CC(=O)[C@]3(C)[C@@H]12` (some centres undefined), the EC50 is above 100 µg/mL.

Regarding `C=C(C)CCC1=C(C)[C@H]2[C@H](C[C@H]3[C@@H]4CC[C@H]5CC(=O)CC[C@]5(C)[C@H]4CC(=O)[C@@]32C)O1`, the EC50 came out at 14.5 µg/mL (≈ 35.3 µM).

Regarding `CC1=C(CC[C@](C)(O)CO)O[C@H]2C[C@H]3[C@@H]4CC[C@H]5CC(=O)CC[C@]5(C)[C@H]4CC(=O)[C@]3(C)[C@@H]12`, the EC50 worked out at 23.4 µg/mL (≈ 52.6 µM).

For `CC(=O)OC[C@@](C)(O)CCC1=C(C)[C@H]2[C@H](C[C@H]3[C@@H]4CC[C@H]5CC(=O)CC[C@]5(C)[C@H]4CC(=O)[C@@]32C)O1`, the EC50 came to 19.3 µg/mL (≈ 39.7 µM).

System in another experiment: not listed separately
Put plainly: Cytotoxicity against human NCI60 cells by SRB assay. It counts as functional.
Details: not given
Background: In SRB staining, fixed cells bind dye roughly in proportion to their protein.
Turning to `C[C@@H]1[C@]2(O[C@H]3C=C4[C@@H]5CC[C@H]6Cc7nc8c(nc7C[C@]6(C)[C@H]5C[C@@H](O)[C@]4(C)[C@]31O)C[C@@H]1CC[C@H]3C4=C[C@@H]5O[C@]6(CCC(C)(C)O6)[C@@H](C)[C@@H]5[C@@]4(C)[C@H](O)C[C@@H]3[C@@]1(C)C8)O[C@@](C)(CO)C[C@H]2O`, the concentration for 50% growth inhibition (GI50) is 0.48 nM.

For `C[C@@H]1[C@]2(O[C@H]3C=C4[C@@H]5CC[C@H]6Cc7nc8c(nc7C[C@]6(C)[C@H]5C[C@@H](O)[C@]4(C)[C@]31O)C[C@@H]1CC[C@H]3C4=C[C@@H]5O[C@]6(CCC(C)(C)O6)[C@@H](C)[C@@H]5[C@@]4(C)[C@H](O)C[C@@H]3[C@@]1(C)C8)O[C@](C)(CO)C[C@H]2O`, the GI50 came to 14 nM. Against the preceding molecule, the GI50 is about 29-fold higher.
